Assay results as given in paper PMC7180572, “5-Alkylamino-N-phenylpyrazine-2-carboxamides: Design, Preparation, and Antimycobacterial Evaluation” (Molecules, 2020).
Like-named read-outs stand apart in the source and are kept apart here.

What was measured:
[1] = system: Mycobacterium tuberculosis H37Ra ITM-M006710 (ATCC 9431); assay: Microdilution broth, modified Microplate Alamar Blue Assay, whole cell growth inhibition; assay type: cell-based; settings: Mycobacterium tuberculosis; in vitro, Middlebrook 7H9 broth, resazurin; read-out: MIC Mtb H37Ra
[2] = system: Mycobacterium aurum DSM 43999 (ATCC 23366); assay: as above; assay type: cell-based; settings: Mycolicibacterium aurum, read-out: MIC Mycobacterium aurum
[3] = system: Mycobacterium smegmatis DSM 43465 (ATCC 607); assay: as above; assay type: cell-based; settings: Mycolicibacterium smegmatis, read-out: MIC Mycobacterium smegmatis
HepG2 cells = assay: HepG2 cytotoxicity, CellTiter 96 (MTS) assay; assay type: cell-based, human; settings: Homo sapiens, read-out: HepG2 IC50
[4] = assay type: physicochemical
Description: As a complementary test, final compounds were tested for in vitro activity against selected fungal and bacterial pathogens of clinical importance. The microdilution broth method was performed according to The European Committee on Antimicrobial Susceptibility Testing (EUCAST) instructions with slight modifications. The minimum inhibitory concentration was expressed in µM. Not all compounds were evaluated due to the fact of a problem with solubility which occurred for 18 samples. […] See Supplementary Materials for the list of tested strains, methodology, and full results.

[5] = system: Staphylococcus epidermidis ATCC 12228, CCM 4418; assay: Antibacterial microdilution broth method (EUCAST); assay type: cell-based; settings: read-out: MIC SE
[6] = system: Pseudomonas aeruginosa ATCC 27853, CCM 3955; assay: Antibacterial microdilution broth method (EUCAST); assay type: cell-based; settings: read-out: MIC PA
[7] = system: Acinetobacter baumanii ATCC 19606, DSM 30007; assay: Antibacterial microdilution broth method (EUCAST); assay type: cell-based; settings: Acinetobacter baumannii
[8] = system: Candida krusei ATCC 6258, CCM 8271; assay: Antifungal microdilution broth method (EUCAST); assay type: cell-based; settings: Pichia kudriavzevii, read-out: MIC CK
[9] = system: Enterococcus faecalis ATCC 29212, CCM 4224; assay: Antibacterial microdilution broth method (EUCAST); assay type: cell-based; settings: read-out: MIC EF
[10] = system: Candida albicans ATCC 24433, CCM 8320; assay: Antifungal microdilution broth method (EUCAST); assay type: cell-based; settings: read-out: MIC CA
[11] = system: Trichophyton interdigitale ATCC 9533, CCM 8377; assay: Antifungal microdilution broth method (EUCAST); assay type: cell-based; settings: read-out: MIC TI
[12] = system: Aspergillus flavus CCM 8363; assay: Antifungal microdilution broth method (EUCAST); assay type: cell-based; settings: read-out: MIC AFla
[13] = system: Absidia corymbifera CCM 8077 (Lichtheimia corymbifera); assay: Antifungal microdilution broth method (EUCAST); assay type: cell-based; settings: read-out: MIC AC
[14] = system: Candida tropicalis ATCC 750, CCM 8264; assay: Antifungal microdilution broth method (EUCAST); assay type: cell-based; settings: read-out: MIC CT
[15] = system: Candida parapsilosis ATCC 22019, CCM 8260; assay: Antifungal microdilution broth method (EUCAST); assay type: cell-based; settings: Lodderomyces parapsilosis, read-out: MIC CP
[16] = system: Escherichia coli ATCC 25922, CCM 3954; assay: Antibacterial microdilution broth method (EUCAST); assay type: cell-based; settings: read-out: MIC EC
[17] = system: Staphylococcus aureus spp.aureus ATCC 29213, CCM 4223; assay: Antibacterial microdilution broth method (EUCAST); assay type: cell-based; settings: read-out: MIC SA
[18] = system: Klebsiella pneumoniae ATCC 10031, CCM 4415; assay: Antibacterial microdilution broth method (EUCAST)
[19] = system: Staphylococcus aureus methicillin resistant ATCC 43300, CCM 4750; assay: microbe, parasite or virus in culture; assay type: cell-based; settings: ATCC 43300 / CCM 4750 / MRSA, read-out: MIC MRSA
[20] = system: Aspergillus fumigatus ATCC 204305; assay: Antifungal microdilution broth method (EUCAST); assay type: cell-based; settings: read-out: MIC AF
[21] = in vitro, Middlebrook 7H9 broth, resazurin
[22] = HepG2, 24 h incubation, > means higher concentration not reproducible due to precipitation

CCCCCNc1cnc(C(=O)Nc2cccc(O)c2)cn1 [Compound 2c, N-(3-hydroxyphenyl)-5-(pentylamino)pyrazine-2-carboxamide]
> 10 µM: IC50 (HepG2 cells; [22])
224.8 to 226.1 °C: melting point
≥ 500 mg/L: MIC [1] | MIC [2, 21] | MIC [3, 21]
precipitated in both growth media: Solubility problem in antibacterial/antifungal testing [4]

CCCCCCNc1cnc(C(=O)Nc2cccc(O)c2)cn1 [Compound 2d, 5-(Hexylamino)pyrazine-N-(3-hydroxyphenyl)-2-carboxamide]
precipitated in both growth media: Solubility problem in antibacterial/antifungal testing [4]
≥ 500 mg/L: MIC [1] | MIC [2, 21] | MIC [3, 21]
> 10 µM: IC50 (HepG2 cells; [22])
225 to 226 °C: melting point

CCCCCCCNc1cnc(C(=O)Nc2cccc(O)c2)cn1 [Compound 2e, 5-(Heptylamino)pyrazine-N-(3-hydroxyphenyl)-2-carboxamide]
> 10 µM: IC50 (HepG2 cells; [22])
250 mg/L: MIC [3, 21]
222 to 223 °C: melting point
≥ 500 mg/L: MIC [1] | MIC [2, 21]
precipitated in both growth media: Solubility problem in antibacterial/antifungal testing [4]

CCCCCNc1cnc(C(=O)Nc2ccc(C)cc2)cn1 [Compound 4c, 5-(Pentylamino)-N-(p-tolyl)pyrazine-2-carboxamide]
155.9 to 156.6 °C: melting point
> 500 µM: MIC ([5]; 24 h) | MIC ([5]; 48 h) | MIC ([6]; 72 h) | MIC ([6]; 120 h) | MIC ([7]; 24h) | MIC ([7]; 48h) | MIC ([9]; 24 h) | MIC ([9]; 48 h) | MIC ([16]; 24 h) | MIC ([16]; 48 h) | MIC ([17]; 24 h) | MIC ([17]; 48 h) | MIC KP ([18]; 24h) | MIC KP ([18]; 48h) | MIC ([19]; 24 h) | MIC ([19]; 48 h)
≥ 500 mg/L: MIC [1] | MIC [2] | MIC [3]
> 25 µM: IC50 (HepG2 cells; HepG2, 24 h)
> 125 µM: MIC ([8]; 24 h) | MIC ([8]; 48 h) | MIC ([10]; 24 h) | MIC ([10]; 48 h) | MIC ([11]; 72 h) | MIC ([11]; 120 h) | MIC ([12]; CCM8363, 24 h) | MIC ([12]; CCM8363, 48 h) | MIC ([13]; CCM8077, 24 h) | MIC ([13]; CCM8077, 48 h) | MIC ([14]; 24 h) | MIC ([14]; 48 h) | MIC ([15]; 24 h) | MIC ([15]; 48 h) | MIC ([20]; ATCC204305, 24 h) | MIC ([20]; ATCC204305, 48 h)
